Assays:
Jurkat cells [1] = assay: Cytotoxicity assay (MTT), Jurkat; assay type: cell-based, human
Protocol: FIG. 8: CAMVE potentiates apoptosis induced by TNF or chemotherapeutic agents. A1. Jurkat cells were incubated at 37° C. with TNF, in the presence and absence of 10 μM of CAMVE for 72 h and the viable cells were assayed using MTT reagent. The results are shown as the mean±S.D. from triplicate culture. A2. Jurkat cells (1×10^6 cells/ml) were pretreated with CAMVE for 3 h as indicated and incubated with TNF for 24 hrs, and PARP cleavage was determined by FACS analysis as described in the “Materials and Methods”. M2 gated population represents the percentage apoptotic population B. SA-LPS/Jkt cells pretreated with 10 μM of CAMVE for 3 h, were treated with 1 μM of cis-plastin, doxorubicin, taxol or vincristine for 72 h. The cytotoxicity was then assayed by MTT method. Results are shown as the mean±S.D. from triplicate samples.
FIG. 11: Dose response for compound 27 induced loss of cell viability and cell proliferation in Jurkat cell line. […] Error bars indicate±S.D.
Cytotoxicity was assayed by the modified tetrazolium salt 3-(4,5-dimethylthiazol-2-yl)-2,5-diphenyltetrazolium bromide (MTT) assay as described by Plumb, J A et al. (Cancer Res. 1989 Aug. 15; 49(16):4435-4440). […]

RAW 264.7 cells = assay: Nitrite quantification (Griess) in LPS stimulated macrophages; assay type: cell-based, mouse; conditions: for CONCENTRATION OF NITRITE μM ± SD: RAW 264.7 + LPS (200 ng/ml) + 10 μM compound, 24 h, LPS + DMSO control 14.560, basal 0.782
Protocol: NO2^− accumulation was used as an indicator of Nitric Oxide (NO) production in the medium as described previously (Green et al., 1982 Anal Biochem 126, 131-138). […] The isolated supernatants were mixed with an equal volume of Griess reagent (1% sulfanilamide, 0.1% naphthylenediamine dihydrochloride, and 2% phosphoric acid) and incubated at room temperature for 15 min. NaNO2 was used to generate a standard curve, and nitrite production was determined by measuring the optical density at 540 nm.
To estimate the anti-inflammatory effects of all the synthetic molecules listed in this study, we measured the accumulation of nitrite, the stable metabolite of NO, in the culture media using Griess reagent.
To investigate the effect of CAMVE on NO production, we measured the accumulation of nitrite, the stable metabolite of NO, in the culture media using Griess reagent. To investigate the effect of CAMVE on NO production, Raw 264.7 cells, pretreated with indicated concentrations of CAMVE for 1 h were incubated with LPS (250 ng/ml) for 24 h.

TNFα = assay: Bioassay of TNFα production by LPS activated RAW 264.7 macrophages using L929 cell line; assay type: cell-based; conditions: Mus musculus; L929 + ActD + supernatant from LPS + compound (10 μM) treated RAW 264.7 macrophage; crystal violet; mean ± S.D. of triplicate; read-out: PERCENTAGE CELL SURVIVAL ± S.D.
Protocol: Measurement of TNFα in culture medium or supernatant is performed using immunoassay and bioassay. Bioassay was used for the measurement of bioactive TNFα production in the culture medium.
TNFα secretion into the medium by LPS activated macrophage was assayed using L929 tumorigenic murine cells (ATCC) specifically sensitive to TNFα. L929 cell cytotoxicity assay was performed by a modified method (Sano et al., The Journal of Immunology, 1999, 163: 387-395 The Journal of Immunology, 1999, 163: 387-395) based on that described elsewhere (Flick D A, Gifford G E. J Immunol Methods. 1984 Mar. 30; 68(1-2): 167-175). Briefly, the L929 cells (log phase cells) were seeded into a flat bottom 96 well plates (6×10^4/well) in 100 μl volume of RPMI 1640 containing 2% FCS and incubated overnight at 37° C. in a 5% CO2 incubator. A working dilution of the culture supernatant collected from LPS (200 ng/ml) activated macrophage in a volume of 100 μl per well was first tested to obtain 70-75% cytotoxicity equivalent to […] of recombinant TNFα standard to the TNFα sensitive L929 cell line. After incubation of the L929 cells appropriate fixed dilution of the culture supernatant collected from the compound treated (10 μM) wells, containing the LPS stimulated macrophages in a volume of 100 μl with 2 μg/ml Actinomycin D (Act D) was taken and added to the L929 cells and the cells were incubated at room temperature for 15 min followed by 18 h incubation at 37° C. overnight with 5% CO2. On the next day the medium was removed and the cells were stained with 0.2% (w/v) crystal violet for 10 minutes. The wells were gently rinsed with water, and 33% acetic acid (100 μl/well) was added to extract the retained crystal violet. The absorbance at 570 nm was finally measured.
Tumor necrosis factor-α can cause direct cytotoxicity to the lung fibroblast cell line (L929). Bioassay of TNF α is designated on the basis of this cytotoxicity of TNF α, which can be used for the identification of murine TNF α activity in tissue culture supernatants. Culture supernatant collected from the synthetic molecules treated well containing LPS stimulated macrophage modulated the extent of cytotoxicity to the L929 cells (see Table 1).

Jurkat cells [2] = assay: Cell cycle analysis (PI, flow cytometry), Jurkat; assay type: cell-based, human; conditions: for cell cycle distribution with time: 100 nM and 500 nM
Protocol: (§1) Cells (log phase culture) were treated with vehicles alone (similar volumes of DMSO) or with the compound (various concentrations) to be tested for 24 h. Untreated cells were also included in this experiment for comparison. After treatments, the cells were harvested and washed with cold EDTA/PBS (5 mmol/L). Cells were then resuspended in cold EDTA/PBS (300 μl) and 100% chilled ethanol (700 μl), vortexed, and incubated at room temperature for 1 h. Samples were centrifuged at 200×g for 5 minutes and the supernatant was removed. A solution containing propidium iodide (100 μg/ml) and RNase A (1 mg/ml) was added to the samples and incubated for 1 h at room temperature. Samples were then transferred to 12×75 mm polystyrene tubes and analyzed on flow cytometer. Flow cytometry analyses were done on FACSCalibur (Becton Dickinson, San Jose, Calif.) and data were analyzed using CellQuest analysis software.
as §1, with “Cells (log phase culture) were treated with vehicles alone (similar volumes of DMSO) or with the compound (various concentrations) to be tested for 24 h.” left out, “PBS.” for “EDTA/PBS (5 mmol/L).”, “PBS” for “EDTA/PBS”

Structure (SMILES)	cytotoxicity induced by chemotherapeutic agents (MTT) (Jurkat cells [1]; SA-LPS (100 ng/ml) activated Jurkat, 10 μM CAMVE 3 h, then 1 μM cis-platin, doxorubicin, taxol or vincristine 72 h)	CONCENTRATION OF NITRITE μM ± SD (RAW 264.7 cells) [µM]	LPS induced nitrite production (RAW 264.7 cells; Raw 264.7 pretreated 1 h, LPS 250 ng/ml 24 h)	viability at 10 µM (TNFα) [%]	cell cycle distribution (Jurkat cells [2]; 5 μM, 24 h)	GI50 (Jurkat cells [1]; Homo sapiens, Jurkat, MTT, 24 h and 48 h, read-out: GI50 (concentration causing 50% growth inhibition)) [nM]	G2/M population (Jurkat cells [2]; 50 nM (data not shown))	cell cycle distribution with time (Jurkat cells [2]; 48 and 72 h)	cell cycle distribution with time (Jurkat cells [2]; 24 h)	increase of cells in the G2/M phase (Jurkat cells [2]; 100 nM, 24 h) [%]	G2/M and sub G1 population (Jurkat cells [2]; concentration higher than 100 nM)
COC(=O)c1ccc(OC(=O)/C=C/c2ccc(O)c(O)c2)c(OC)c1 [compound 1, Methyl 4-{[(2E)-3-(3,4-dihydroxyphenyl)prop-2-enoyl]oxy}-3-methoxybenzoate]	significantly enhanced by CAMVE pretreatment	1.849 ± 0.214	inhibited by CAMVE treatment in a dose-dependent manner	73.2 ± 1.77	significant increase of cells in the G1 and compensatory decrease in the S phase	–	–	–	–	–	–
COc1cc([C@@H]2Oc3c(OC)cc(/C=C/C(=O)O)cc3[C@H]2C(=O)O)ccc1O [compound 27, 5-[(E)-2-carboxyvinyl]-2β-(4-hydroxy-3-methoxyphenyl)-7-methoxy-2,3-dihydro-1-benzofuran-3α-carboxylic acid]	–	5.027 ± 0.200	–	46.5 ± 1.02	–	~100	no significant increase in G2/M population	significant decrease in the G2/M population	accumulated in G2/M after 24 h with a significant decrease in the G1 and S phase populations	~50	further increase in both G2/M and sub G1 population

— patent US20100168228A1, “NOVEL CHEMOTHERAPEUTIC AGENTS AGAINST INFLAMMATION AND CANCER” (RELIANCE LIFE SCIENCES PVT. LTD., priority 2006, published 2010)
